In paper PMC9265729, “A Genetic Toxicology Study of the Rapid Detection of Nitrosamine Compounds by the rpsL Gene Mutation Assay” (Foods, 2022):
“And” between values parts separate entries of the source, which are not always exact repeats. Equal values may be shown once.

Tests used:
[1] = test system: rpsL gene; test: rpsL gene mutation rate at the cellular level (E. coli MF101 + pMOL21 cultured with mutagen, Amp/Str plate selection); conditions: for Mutation Rate of rpsL (mean ± SD): E. coli MF101 + pMOL21, mean of 4 experiments; for Mutation Rate of rpsL (single experiment): E. coli MF101 + pMOL21, single replicate; for genotoxicity / mutagenicity in words: NDEA, NDPA at 10 ppm, EB at lower concentrations
Protocol: The mutagenicity detection of nitrosamine compounds was carried out using the rpsL gene on plasmid pMOL21 as a selectable marker. The ribosomal protein S12 encoded by the rpsL gene can form a complex with streptomycin and enhance the ability of streptomycin to bind to 16 S rRNA, thereby preventing the initiation of […]. When the rpsL gene is mutated, the interaction between 16 S rRNA and streptomycin is disrupted, resulting in cell resistance to streptomycin.
We adopted Escherichia coli MF101, whose rpsL gene is mutated, so this strain has streptomycin resistance. The plasmid pMOL21 contains ampicillin as a selection marker and the correct rpsL gene. […] For specific information on strains and plasmids, please refer to [14].
E. coli MF101 + pMOL21 were cultured with different concentrations (10 ppm, 100 ppm, or 1000 ppm) of NDEA or NDPA. Ten hours after growth, the strains were collected and spread on plates containing ampicillin (Amp^+, 50 μg/mL) to determine the total number of transformed cells and spread on plates containing ampicillin and streptomycin (Amp^+, Str^+, 50 μg/mL) to determine the number of colonies with rpsL gene mutations. The mutation rate is the ratio of the number of mutant colonies to the total number of colonies. […] The experimental data and images were statistically analyzed by Origin2018 software.

[2] = test system: rpsL gene; test: rpsL gene mutation rate in the PCR amplification system (Pfu DNA polymerase, mutagen added directly to the PCR system); assay type: biochemical, Escherichia coli; conditions: for Mutation Rate of rpsL in PCR (mean ± SD): mean of 4 experiments; for Mutation Rate of rpsL in PCR (single experiment): single replicate
Protocol: The PCR system was as follows: 10 × PCR buffer (Mg^2+) 5 μL, dNTP 2 μL, pMOL21 plasmid template 1 μL, upstream and downstream primers 1 μL, Pfu DNA polymerase 0.5 μL, ddH2O supplemented to […] (nitrosamine compounds were directly added to the PCR system).
The PCR program was as follows: predenaturation at 95 °C for 5 min, denaturation at 94 °C for 30 s, annealing at 55 °C for 30 s, extension at 72 °C for 120 s, 25 cycles, full extension at 72 °C for 10 min, and storage at 16 °C.
The PCR products were recovered and ligated with restriction enzymes (MscI, BamH1), transformed into MF101 strains, plated on ampicillin-containing plates to determine the total number of transformed cells, and plated on ampicillin- and streptomycin-containing plates to identify rpsL gene-mutated colonies.
We measured the mutation rate of mutagen-induced rpsL gene mutations in the PCR system. The mutagen was added directly to the PCR system to determine the mutation rate of the rpsL gene during DNA amplification.

[3] = test system: rpsL gene; test: rpsL gene mutation rate in the RCA reaction system (phi29 DNA polymerase, mutagen added to the amplification reaction); assay type: biochemical, Escherichia coli; conditions: for Mutation Rate of rpsL in the RCA reaction (mean ± SD): mean of 4 experiments; for Mutation Rate of rpsL in the RCA reaction (single experiment): single replicate
Protocol: Heat denaturation of samples and annealing reaction system of primers and plasmids: 1 μL of 10 × phi29 DNA polymerase reaction buffer, 2.5 μL of 100 μM random primers, 1 μL of plasmid pMOL21 to be amplified, and 4.3 μL of ddH2O. The above system was heated at 95 °C for 3 min and then placed on ice for 15 min.
Amplification reaction system: 10 mM dNTP 0.5 μL, 100 × BSA 0.2 μL, phi29 DNA polymerase 0.5 μL to the above reaction solution (nitrosamine compounds or EB are added to the amplification reaction system), and then incubated at 30 °C overnight.
Heat-inactivated phi29 DNA polymerase: heat at 65 °C for 10 min.
We then determined the mutation rate of mutagen-induced rpsL gene mutations in the RCA system. In this experiment, we adopted the method of directly adding a mutagen to the RCA amplification reaction solution to provide a direct mutagenic environment for the amplification of the rpsL gene. This method avoids the possibility of affecting the mutagenicity of NDEA, NDPA, or EB during thermal denaturation.

[4] = 100 ppm mutagen in RCA reaction
[5] = 1000 ppm mutagen in RCA reaction

CC[n+]1c(-c2ccccc2)c2cc(N)ccc2c2ccc(N)cc21 [EB, ethidium bromide, reference compound]
Mutation Rate of rpsL (mean ± SD) ([1]; 10 ppm mutagen): 3.71 10^−6 and 3.71 ± 0.502 10^−6
Mutation Rate of rpsL (single experiment) ([1]; 10 ppm mutagen): 3.65 10^−6 and 4.38 10^−6 and 3.64 10^−6 and 3.16 10^−6
Mutation Rate of rpsL (mean ± SD) ([1]; 100 ppm mutagen): 5.78 10^−6 and 5.78 ± 0.728 10^−6
Mutation Rate of rpsL (single experiment) ([1]; 100 ppm mutagen): 6.50 10^−6 and 6.05 10^−6 and 4.78 10^−6 and 5.79 10^−6
Mutation Rate of rpsL (mean ± SD) ([1]; 1000 ppm mutagen): 7.87 10^−6 and 7.87 ± 1.842 10^−6
Mutation Rate of rpsL (single experiment) ([1]; 1000 ppm mutagen): 9.82 10^−6 and 6.71 10^−6 and 5.94 10^−6 and 9.01 10^−6
genotoxicity / mutagenicity in words [1]: strong mutagenicity
Mutation Rate of rpsL in PCR (mean ± SD) ([2]; 10 ppm mutagen in PCR system): 4.06 10^−6 and 4.06 ± 0.471 10^−6
Mutation Rate of rpsL in PCR (single experiment) ([2]; 10 ppm mutagen in PCR system): 4.23 10^−6 and 4.47 10^−6 and 4.15 10^−6 and 3.38 10^−6
Mutation Rate of rpsL in PCR (mean ± SD) ([2]; 100 ppm mutagen in PCR system): 6.01 10^−6 and 6.01 ± 1.319 10^−6
Mutation Rate of rpsL in PCR (single experiment) ([2]; 100 ppm mutagen in PCR system): 5.99 10^−6 and 7.69 10^−6 and 4.47 10^−6 and 5.88 10^−6
Mutation Rate of rpsL in PCR (mean ± SD) ([2]; 1000 ppm mutagen in PCR system): 10.35 10^−6 and 10.35 ± 1.143 10^−6
Mutation Rate of rpsL in PCR (single experiment) ([2]; 1000 ppm mutagen in PCR system): 11.98 10^−6 and 9.32 10^−6 and 10.15 10^−6 and 9.94 10^−6
Mutation Rate of rpsL in the RCA reaction (mean ± SD) ([3]; 10 ppm mutagen in RCA reaction): 3.81 10^−6 and 3.81 ± 0.335 10^−6
Mutation Rate of rpsL in the RCA reaction (single experiment) ([3]; 10 ppm mutagen in RCA reaction): 3.62 10^−6 and 4.31 10^−6 and 3.69 10^−6
Mutation Rate of rpsL in the RCA reaction (mean ± SD) [3, 4]: 6.38 10^−6 and 6.38 ± 0.915 10^−6
Mutation Rate of rpsL in the RCA reaction (single experiment) [3, 4]: 7.26 10^−6 and 6.66 10^−6 and 5.10 10^−6 and 6.49 10^−6
Mutation Rate of rpsL in the RCA reaction (mean ± SD) [3, 5]: 7.35 10^−6 and 7.35 ± 2.615 10^−6
Mutation Rate of rpsL in the RCA reaction (single experiment) [3, 5]: 6.86 10^−6 and 4.07 10^−6 and 10.34 10^−6 and 8.11 10^−6

CCN(CC)N=O [NDEA, N-diethylnitrosamine]
Mutation Rate of rpsL (mean ± SD) ([1]; 10 ppm mutagen): 2.42 10^−6 and 2.42 ± 0.717 10^−6
Mutation Rate of rpsL (single experiment) ([1]; 10 ppm mutagen): 1.44 10^−6 and 2.34 10^−6 and 2.95 10^−6 and 2.96 10^−6
Mutation Rate of rpsL (mean ± SD) ([1]; 100 ppm mutagen): 3.76 10^−6 and 3.76 ± 0.852 10^−6
Mutation Rate of rpsL (single experiment) ([1]; 100 ppm mutagen): 3.32 10^−6 and 2.81 10^−6 and 4.23 10^−6 and 4.69 10^−6
Mutation Rate of rpsL (mean ± SD) ([1]; 1000 ppm mutagen): 4.82 10^−6 and 4.82 ± 1.738 10^−6
Mutation Rate of rpsL (single experiment) ([1]; 1000 ppm mutagen): 2.89 10^−6 and 3.85 10^−6 and 6.02 10^−6 and 6.54 10^−6
genotoxicity / mutagenicity in words [1]: high genotoxicity
Mutation Rate of rpsL in PCR (mean ± SD) ([2]; 10 ppm mutagen in PCR system): 2.83 10^−6 and 2.83 ± 1.197 10^−6
Mutation Rate of rpsL in PCR (single experiment) ([2]; 10 ppm mutagen in PCR system): 1.28 10^−6 and 2.65 10^−6 and 4.11 10^−6 and 3.30 10^−6
Mutation Rate of rpsL in PCR (mean ± SD) ([2]; 100 ppm mutagen in PCR system): 4.51 10^−6 and 4.51 ± 1.314 10^−6
Mutation Rate of rpsL in PCR (single experiment) ([2]; 100 ppm mutagen in PCR system): 3.70 10^−6 and 3.09 10^−6 and 5.47 10^−6 and 5.77 10^−6
Mutation Rate of rpsL in PCR (mean ± SD) ([2]; 1000 ppm mutagen in PCR system): 5.02 10^−6 and 5.02 ± 1.890 10^−6
Mutation Rate of rpsL in PCR (single experiment) ([2]; 1000 ppm mutagen in PCR system): 3.16 10^−6 and 3.68 10^−6 and 6.23 10^−6 and 7.03 10^−6
Mutation Rate of rpsL in the RCA reaction (mean ± SD) ([3]; 10 ppm mutagen in RCA reaction): 2.49 10^−6 and 2.49 ± 0.692 10^−6
Mutation Rate of rpsL in the RCA reaction (single experiment) ([3]; 10 ppm mutagen in RCA reaction): 1.79 10^−6 and 2.02 10^−6 and 3.20 10^−6 and 2.96 10^−6
Mutation Rate of rpsL in the RCA reaction (mean ± SD) [3, 4]: 3.62 10^−6 and 3.62 ± 0.316 10^−6
Mutation Rate of rpsL in the RCA reaction (single experiment) [3, 4]: 3.47 10^−6 and 3.38 10^−6 and 3.55 10^−6 and 4.08 10^−6
Mutation Rate of rpsL in the RCA reaction (mean ± SD) [3, 5]: 5.54 10^−6 and 5.54 ± 2.444 10^−6
Mutation Rate of rpsL in the RCA reaction (single experiment) [3, 5]: 3.14 10^−6 and 3.96 10^−6 and 6.59 10^−6 and 8.46 10^−6

CCCN(CCC)N=O [NDPA, N-dipropylnitrosamine]
Mutation Rate of rpsL (mean ± SD) ([1]; 10 ppm mutagen): 2.67 10^−6 and 2.67 ± 0.909 10^−6
Mutation Rate of rpsL (single experiment) ([1]; 10 ppm mutagen): 2.34 10^−6 and 1.70 10^−6 and 2.80 10^−6 and 3.86 10^−6
Mutation Rate of rpsL (mean ± SD) ([1]; 100 ppm mutagen): 4.75 10^−6 and 4.75 ± 1.417 10^−6
Mutation Rate of rpsL (single experiment) ([1]; 100 ppm mutagen): 5.72 10^−6 and 2.66 10^−6 and 5.09 10^−6 and 5.53 10^−6
Mutation Rate of rpsL (mean ± SD) ([1]; 1000 ppm mutagen): 5.14 10^−6 and 5.14 ± 1.433 10^−6
Mutation Rate of rpsL (single experiment) ([1]; 1000 ppm mutagen): 7.05 10^−6 and 4.20 10^−6 and 5.41 10^−6 and 3.89 10^−6
genotoxicity / mutagenicity in words [1]: high genotoxicity
Mutation Rate of rpsL in PCR (mean ± SD) ([2]; 10 ppm mutagen in PCR system): 2.93 10^−6 and 2.93 ± 1.430 10^−6
Mutation Rate of rpsL in PCR (single experiment) ([2]; 10 ppm mutagen in PCR system): 1.83 10^−6 and 1.92 10^−6 and 3.05 10^−6 and 4.91 10^−6
Mutation Rate of rpsL in PCR (mean ± SD) ([2]; 100 ppm mutagen in PCR system): 4.98 10^−6 and 4.98 ± 1.330 10^−6
Mutation Rate of rpsL in PCR (single experiment) ([2]; 100 ppm mutagen in PCR system): 6.16 10^−6 and 3.08 10^−6 and 5.45 10^−6 and 5.21 10^−6
Mutation Rate of rpsL in PCR (mean ± SD) ([2]; 1000 ppm mutagen in PCR system): 6.85 10^−6 and 6.85 ± 1.316 10^−6
Mutation Rate of rpsL in PCR (single experiment) ([2]; 1000 ppm mutagen in PCR system): 7.72 10^−6 and 8.12 10^−6 and 6.32 10^−6 and 5.25 10^−6
Mutation Rate of rpsL in the RCA reaction (mean ± SD) ([3]; 10 ppm mutagen in RCA reaction): 2.98 10^−6 and 2.98 ± 0.585 10^−6
Mutation Rate of rpsL in the RCA reaction (single experiment) ([3]; 10 ppm mutagen in RCA reaction): 2.18 10^−6 and 3.59 10^−6 and 3.05 10^−6 and 3.10 10^−6
Mutation Rate of rpsL in the RCA reaction (mean ± SD) [3, 4]: 5.59 10^−6 and 5.59 ± 2.287 10^−6
Mutation Rate of rpsL in the RCA reaction (single experiment) [3, 4]: 4.90 10^−6 and 3.85 10^−6 and 8.96 10^−6 and 4.67 10^−6
Mutation Rate of rpsL in the RCA reaction (mean ± SD) [3, 5]: 6.2 10^−6 and 6.20 ± 1.110 10^−6
Mutation Rate of rpsL in the RCA reaction (single experiment) [3, 5]: 7.78 10^−6 and 5.18 10^−6 and 5.96 10^−6 and 5.87 10^−6
